Experimental data from article PMC4595849, “Rational Design of Benzylidenehydrazinyl-Substituted Thiazole Derivatives as Potent Inhibitors of Human Dihydroorotate Dehydrogenase with in Vivo Anti-arthritic Activity” (Scientific Reports, 2015).
Values joined by “and” are separate entries in the source; they are usually repeats but may differ in a detail not shown here. Identical values can stand only once. Like-named read-outs stand apart in the source and are kept apart here.

Assays:
[1] = biological target: T1, hDHODH (Met30-Arg396) (Homo sapiens, UniProt Q02127); assay: hDHODH enzyme inhibition, DCIP assay; assay type: biochemical; conditions: for LLE: LLE = pIC50 − clogP; for IC50: hDHODH, mean ± SD of three independent experiments, IC50 measured if inhibition rate at 10 μM was larger than 50%; for fold decrease in potency compared with 19: hDHODH IC50 relative to 19
T1 construct: hDHODH (Met30-Arg396) was expressed and purified in the same manner as described in our recently published work; made in house
From the text: The plasmid coding for human DHODH was kindly provided by Prof. Jon Clardy (Harvard Medical School)[7]. hDHODH (Met30-Arg396) was expressed and purified in the same manner as described in our recently published work[38]. We determined the effect of benzylidenehydrazinyl-substituted thiazole derivatives to inhibit hDHODH by using a DCIP assay method.

[2] = biological target: T1, hDHODH (Met30-Arg396); design: method as in PMID 22984987; conditions: from earlier virtual screen; cited from earlier work
[3] = single dose pharmacokinetic study in rats (IV and PO); conditions: male, Sprague-Dawley, rat, plasma, 1 mg/kg
Procedure: (§1) Male Sprague-Dawley rats were raised according to the Guide for the Care and Use of Laboratory Animals. […] Heparin sodium was applied as the anticoagulant of the blood samples. Based on the LC/MS/MS quantitative data, pharmacokinetic parameters were analyzed using WinNonlin5.2 with noncompartment model.

[4] = in vivo; conditions: male, Sprague-Dawley, rat, po, 10 mg/kg
Procedure: as §1

[5] = test system: Wistar rats with collagen-induced arthritis (CIA); assay: collagen-induced arthritis (CIA) rat efficacy study; assay type: in vivo; conditions: for arthritis score: day 28, maximum score 8; for influence on body weight: i.p. daily for 28 days, versus model group
Procedure: Compound 19 and methotrexate were injected intraperitoneally once per day for 28 days into the Wistar rats with collagen-induced arthritis (CIA). The swelling scores of the arthritis and morphological observations of the rats’ joint tissues were employed to examine the anti-arthritic effect of compound 19 (Fig. 5). With the onset of arthritis, the swelling scores were an indication of the disease states. The maximum score was 8, which is the sum of the scores from both hind paws of each rat and indicates a severe arthritis state. During the experiment, the control rats had normal eating patterns, shiny hair and continuously increasing body weight.
Adult male Wistar rats (120–140 g) were purchased from Shanghai SLRC Laboratory animal company and housed in standard pathogen-free cages. The environment was climate-controlled (20–25 °C, 50–60% relative humidity) with a 12-hour light and 12-hour dark cycle as described previously. Sterilized food and water were provided naturally. All procedures involving animals conform to the Chinese government guidelines for animal experiments, and were conducted with approval of the Institutional Animal Care and Use Committee of East China University of Science & Technology. Bovine type II collagen (CII, Chondrex, USA) was emulsified in the same manner as that conducted previously to get the CIA model. Specifically, 49 rats were randomly assigned into five groups: normal control (solvent, i.p., n = 6), CIA model (solvent, i.p., n = 11), Methotrexate-treated (0.3 mg/kg, i.p., n = 10), compound 19-treated (5 mg/kg, i.p., n = 11) and compound 19-treated (30 mg/kg, i.p., n = 11) groups. Methotrexate, reported to has a therapeutic effect on rheumatoid arthritis, was used as the positive control in this study. The main workflows of this experiment were consistent with that reported recently. During the 28 days of the experiment, compound 19 (5 mg/kg and 30 mg/kg) and Methotrexate (0.3 mg/kg) were injected intraperitoneally once every day. At the same time, the normal control group and model group were administered the same amount of solution. The solvent of 19 was made up of 5% DMSO, 45% saline and 50% PEG400.
In this study, the clinical-mimic arthritis was observed and the severity was assessed by the same criteria as that applied in reference 65: 0, normal, without any swelling; 1, mild swelling; 2, swelling; 3, significant swelling; 4, severe swelling. The maximum score was 8, which was the sum of the scores from both hind paws of each rat. When arthritic signs appeared, the incidence and severity of the arthritis in rats with different treatments were evaluated via arthritis scores recorded every 2 days under blinded conditions. Measurement of body weight was taken every 3 days. All Wistar rats were killed after 28 day’s trails. Pathological detections against the whole knee joints of the rats were conducted using the same method as described previously. Mean ± standard deviation […] was applied to present the data in this study. SPSS was used to evaluate the statistical significance of differences among the groups. P ≤ 0.05 was the threshold to be statistically significant.

[6] = design: method as in PMID 16645972; conditions: in patients; cited from earlier work

T1 sequence (Q02127 29-395): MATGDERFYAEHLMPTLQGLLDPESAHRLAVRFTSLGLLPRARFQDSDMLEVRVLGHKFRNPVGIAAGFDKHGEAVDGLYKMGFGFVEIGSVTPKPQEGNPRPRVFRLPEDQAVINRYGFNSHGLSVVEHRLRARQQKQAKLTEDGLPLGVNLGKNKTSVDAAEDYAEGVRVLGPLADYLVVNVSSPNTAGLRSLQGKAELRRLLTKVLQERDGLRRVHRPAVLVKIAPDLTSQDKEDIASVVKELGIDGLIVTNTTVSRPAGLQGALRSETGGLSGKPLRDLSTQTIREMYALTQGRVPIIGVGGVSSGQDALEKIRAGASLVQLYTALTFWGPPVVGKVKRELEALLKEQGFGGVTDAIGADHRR

SMILES | LLE [1] | IC50 [1] | inhibition of hDHODH (in words) [1] | also measured
O=Cc1ccccc1/C=N/Nc1nc(-c2ccccc2)cs1 [Compound 7] | 2.92 | 0.365 ± 0.0006 µM |  | IC50 [2]: 0.365 µM
Oc1ccccc1/C=N/Nc1nc(-c2ccccc2)cs1 [Compound 8] | <0.17 | > 10 µM |  | 
Oc1c(Cl)cc(Cl)cc1/C=N/Nc1nc(-c2ccccc2)cs1 [Compound 9] | <−1.58 | > 10 µM |  | 
Oc1c(Cl)cc(Cl)cc1/C=N/Nc1nc(-c2ccc(Cl)cc2Cl)cs1 [Compound 10] | <−2.53 | > 10 µM |  | 
C/C(=N\Nc1nc(-c2ccc(Br)cc2)cs1)c1ccccc1O [Compound 11] | <−0.81 | > 10 µM |  | 
Brc1ccc(-c2csc(N/N=C/c3ccccc3)n2)cc1 [Compound 12] | <−0.42 | > 10 µM |  | 
Brc1ccc(-c2csc(N/N=C/c3ccco3)n2)cc1 [Compound 13] | <0 | > 10 µM |  | 
Cc1sc(N/N=C/c2cc([N+](=O)[O-])ccc2O)nc1-c1ccccc1 [Compound 14] | <−0.48 | > 10 µM |  | 
Cc1sc(N/N=C/c2ccccc2O)nc1-c1ccccc1 [Compound 15, (E)-2-((2-(5-methyl-4-phenylthiazol-2-yl)hydrazono)methyl)phenol] | 0.48 | 2.437 ± 0.0229 µM | moderate inhibition | 
O=C(O)c1ccccc1/C=N/Nc1nc(-c2ccccc2Cl)cs1 [Compound 19, (E)-2-((2-(4-(2-chlorophenyl)thiazol-2-yl)hydrazono)methyl)benzoic acid] | 3.59 | 0.032 µM and 0.0322 µM | IC50 values in the double-digit nanomolar range | fold increase in potency compared to 18 ([1]; hDHODH IC50 relative to hydroxy-substituted derivative 18): 43 fold; half-life [3]: 9.69 ± 3.15 h; Cmax [4]: 5310 ± 1910 ng/mL; arthritis score ([5]; 5 mg/kg i.p. daily): around 5; arthritis score ([5]; 30 mg/kg i.p. daily): ~3; anti-arthritic effect (in words) ([5]; 5 and 30 mg/kg i.p. daily for 28 days): significant dose-dependent anti-arthritic effect; histological changes in joint tissues (H&E) ([5]; both dosages, compared to CIA rats): evidently alleviated; influence on body weight [5]: no obvious influence on increase in body weight
O=C(O)c1ccccc1/C=N/Nc1nc(-c2cc(Cl)ccc2Cl)cs1 [Compound 30, (E)-2-((2-(4-(2,5-dichlorophenyl)thiazol-2-yl)hydrazono)methyl)benzoic acid] | 2.88 | 0.043 µM and 0.0431 µM | IC50 values in the double-digit nanomolar range | 
Cc1oncc1C(=O)Nc1ccc(C(F)(F)F)cc1 [Leflunomide, leflunomide] |  |  |  | half-life [6]: approximately two
CN(Cc1cnc2nc(N)nc(N)c2n1)c1ccc(C(=O)N[C@@H](CCC(=O)O)C(=O)O)cc1 [methotrexate, reference compound] |  |  |  | influence on body weight [5]: no obvious influence on increase in body weight

More lines, main results first:

LLE [1] | IC50 [1] | inhibition of hDHODH (in words) [1] | SMILES | also measured
<−1.23 | > 10 µM |  | CC(C)c1ccc(-c2csc(N/N=C/c3ccccc3O)n2)cc1 [Compound 16, (E)-2-((2-(4-(4-isopropylphenyl)thiazol-2-yl)hydrazono)methyl)phenol] | 
<−1.03 | > 10 µM |  | Oc1ccccc1/C=N/Nc1nc(-c2ccc(Cl)c(Cl)c2)cs1 [Compound 17, (E)-2-((2-(4-(3,4-dichlorophenyl)thiazol-2-yl)hydrazono)methyl)phenol] | 
0.76 | 1.39 ± 0.038 µM | moderate inhibition | Oc1ccccc1/C=N/Nc1nc(-c2ccccc2Cl)cs1 [Compound 18, (E)-2-((2-(4-(2-chlorophenyl)thiazol-2-yl)hydrazono)methyl)phenol] | 
<0.34 | > 10 µM | loss of activity | O=C(O)c1cccc(/C=N/Nc2nc(-c3ccccc3Cl)cs2)c1 [Compound 20, (E)-3-((2-(4-(2-chlorophenyl)thiazol-2-yl)hydrazono)methyl)benzoic acid] | 
<0.28 | > 10 µM | loss of activity | O=C(O)c1ccc(/C=N/Nc2nc(-c3ccccc3Cl)cs2)cc1 [Compound 21, (E)-4-((2-(4-(2-chlorophenyl)thiazol-2-yl)hydrazono)methyl)benzoic acid] | 
1.02 | 3.27 ± 0.0678 µM |  | COC(=O)c1ccccc1/C=N/Nc1nc(-c2ccccc2Cl)cs1 [Compound 22, (E)-methyl 2-((2-(4-(2-chlorophenyl)thiazol-2-yl)hydrazono)methyl)benzoate] | fold decrease in potency compared with 19 [1]: 101 fold
0.75 | 1.87 ± 0.03 µM |  | CCOC(=O)c1ccccc1/C=N/Nc1nc(-c2ccccc2Cl)cs1 [Compound 23, (E)-ethyl 2-((2-(4-(2-chlorophenyl)thiazol-2-yl)hydrazono)methyl)benzoate] | fold decrease in potency compared with 19 [1]: 58 fold
2.66 | 0.234 ± 0.0068 µM |  | O=C(O)c1c(F)cccc1/C=N/Nc1nc(-c2ccccc2Cl)cs1 [Compound 24, (E)-2-((2-(4-(2-chlorophenyl)thiazol-2-yl)hydrazono)methyl)-6-fluorobenzoic acid] | fold decrease in potency compared with 19 [1]: 7 fold
<1.22 | > 10 µM | sharp decrease in inhibitory activity | Nc1cccc(C(=O)O)c1/C=N/Nc1nc(-c2ccccc2Cl)cs1 [Compound 25, (E)-3-amino-2-((2-(4-(2-chlorophenyl)thiazol-2-yl)hydrazono)methyl)benzoic acid] | 
3.12 | 0.183 ± 0.0031 µM | slight decrease in activity | O=C(O)c1ccccc1/C=N/Nc1nc(-c2ccccc2)cs1 [Compound 26, (E)-2-((2-(4-phenylthiazol-2-yl)hydrazono)methyl)benzoic acid] | 
3.52 | 0.175 ± 0.0018 µM |  | COc1cccc(-c2csc(N/N=C/c3ccccc3C(=O)O)n2)c1 [Compound 27, (E)-2-((2-(4-(3-methoxyphenyl)thiazol-2-yl)hydrazono)methyl)benzoic acid] | 
4.38 | 1.175 ± 0.0085 µM | sharp decrease in potency | NC(=O)c1cccc(-c2csc(N/N=C/c3ccccc3C(=O)O)n2)c1 [Compound 28, (E)-2-((2-(4-(3-carbamoylphenyl)thiazol-2-yl)hydrazono)methyl)benzoic acid] | 
2.64 | 0.155 ± 0.0068 µM |  | Cc1ccc(-c2csc(N/N=C/c3ccccc3C(=O)O)n2)cc1 [Compound 29, (E)-2-((2-(4-(p-tolyl)thiazol-2-yl)hydrazono)methyl)benzoic acid] | 
1.43 | 0.573 ± 0.0216 µM | moderate inhibitory activity | O=C(O)c1ccccc1/C=N/Nc1nc(-c2ccc3ccccc3c2)cs1 [Compound 31, (E)-2-((2-(4-(naphthalen-2-yl)thiazol-2-yl)hydrazono)methyl)benzoic acid] | 
<−0.04 | > 10 µM | loss of activity | O=C(O)c1ccccc1/C=N/Nc1nc(-c2ccc(-c3ccccc3)cc2)cs1 [Compound 32, (E)-2-((2-(4-([1,1′-biphenyl]-4-yl)thiazol-2-yl)hydrazono)methyl)benzoic acid] | 
